# From patent US20070197590A1, “SUBSTITUTED DIPIPERIDINE CCR2 ANTAGONISTS” (priority 2006, published 2007)
# Biological target: T1, CCR2 (Homo sapiens, UniProt P41597)
# T1 construct: host or cells: THP-1 cells
# T1 sequence (P41597 1-360 isoform P41597-2): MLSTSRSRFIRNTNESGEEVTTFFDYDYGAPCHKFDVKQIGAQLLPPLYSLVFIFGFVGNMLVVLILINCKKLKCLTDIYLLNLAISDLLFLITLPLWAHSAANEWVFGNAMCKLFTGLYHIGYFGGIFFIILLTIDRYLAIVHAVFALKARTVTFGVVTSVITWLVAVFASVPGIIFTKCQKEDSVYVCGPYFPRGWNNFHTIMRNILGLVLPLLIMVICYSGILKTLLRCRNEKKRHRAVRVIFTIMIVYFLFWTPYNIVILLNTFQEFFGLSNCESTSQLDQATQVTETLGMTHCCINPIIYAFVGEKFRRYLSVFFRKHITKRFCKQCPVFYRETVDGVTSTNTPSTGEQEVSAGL
# Assay: MCP-1 Receptor Binding Assay in THP-1 Cells
# Conditions: THP-1 cells, 0.5 nM 125I labeled MCP-1, 2 hours at 30° C.; read-out: Inhibition of MCP-1 Binding IC50
# Description: THP-1 cells were obtained from American Type Culture Collection (Manassas, Va., USA). The THP-1 cells were grown in RPMI-1640 supplemented with 10% fetal bovine serum in a humidified 5% CO2 atmosphere at 37° C. The cell density was maintained […].
# THP-1 cells were incubated with 0.5 nM ^125, labeled MCP-1 (Perkin-Elmer Life Sciences, Inc. Boston, Mass.) in the presence of varying concentrations of either unlabeled MCP-1 (R & D Systems, Minneapolis, Minn.) or test compound for 2 hours at 30° C. in a 96 well plate. Cells were then harvested onto a filter plate, dried, and 20 μL of Microscint 20 was added to each well. Plates were counted in a TopCount NXT, Microplate Scintillation & Luminescence Counter (Perkin-Elmer Life Sciences, Inc. Boston, Mass.). Blank values (buffer only) were subtracted from all values and drug treated values were compared to vehicle treated values. 1 μM cold MCP-1 was used for nonspecific binding.
# Table 1 lists IC50 values for inhibition of MCP-1 binding to CCR2 obtained for test compounds of the invention.
row,IC50,Compound
1,8.1 µM,OC(CN1CCC(c2c[nH]c3ccc(F)cc23)CC1)C1(O)CCN(C(=S)Nc2ccc(Cl)c(Cl)c2)CC1 (stereo not shown) [Compound 162]
2,3.1 µM,"OC(CN1CCC(c2ccc(Cl)cc2)CC1)C1(O)CCN(C(=S)Nc2cc(F)cc(F)c2F)CC1 (stereo not shown) [Compound 166, 4-{2-[4-(4-chloro-phenyl)-piperidin-1-yl]-1-hydroxy-ethyl}-4-hydroxy-piperidine-1-carbothioic acid (2,3,5-trifluoro-phenyl)-amide]"
3,1.2 µM,O=C(/C=C/c1cc(F)c(F)c(F)c1)N1CCC(C(O)CN2CCC(c3cc[nH]n3)CC2)CC1 (stereo not shown) [Compound 35]
4,1 µM,"O=C(Nc1ccc(Cl)c(Cl)c1)N1CCC(O)(C(O)CN2CCC(c3ccc(C(F)(F)F)cc3)CC2)CC1 (stereo not shown) [Compound 143, 4-hydroxy-4-{1-hydroxy-2-[4-(4-trifluoromethyl-phenyl)-piperidin-1-yl]-ethyl}-piperidine-1-carboxylic acid (3,4-dichloro-phenyl)-amide]"
5,4.2 µM,"COc1ccc(C2CCN(CC(O)C3CCN(C(=S)Nc4cc(F)cc(F)c4F)CC3)CC2)cc1 (stereo not shown) [Compound 109, 4-{1-hydroxy-2-[4-(4-methoxy-phenyl)-piperidin-1-yl]-ethyl}-piperidine-1-carbothioic acid (2,3,5-trifluoro-phenyl)-amide]"
6,1.3 µM,"COc1ccc(C2CCN(CC(=O)C3CCN(C(=O)/C=C/c4cc(F)c(F)c(F)c4)CC3)CC2)cc1 [Compound 64, 1-(4-{2-[4-(4-methoxy-phenyl)-piperidin-1-yl]-acetyl}-piperidin-1-yl)-3-(3,4,5-trifluoro-phenyl)-propenone]"
7,1.9 µM,"OC(CN1CCC(c2ccc(C(F)(F)F)cc2)CC1)C1(O)CCN(C(=S)Nc2cc(Cl)cc(Cl)c2)CC1 (stereo not shown) [Compound 145, 4-hydroxy-4-{1-hydroxy-2-[4-(4-trifluoromethyl-phenyl)-piperidin-1-yl]-ethyl}-piperidine-1-carbothioic acid (3,5-dichloro-phenyl)-amide]"
8,0.86 µM,"OC(CN1CCC(c2c[nH]c3ccccc23)CC1)C1(O)CCN(C(=S)Nc2cc(Cl)cc(Cl)c2)CC1 (stereo not shown) [Compound 83, 4-hydroxy-4-{1-hydroxy-2-[4-(1H-indol-3-yl)-piperidin-1-yl]-ethyl}-piperidine-1-carbothioic acid (3,5-dichloro-phenyl)-amide]"
9,4.2 µM,"O=C(Nc1cc(F)cc(C(F)(F)F)c1)N1CCC(O)(C(O)CN2CCC(c3c[nH]c4ccc(N5CCOCC5)cc34)CC2)CC1 (stereo not shown) [Compound 180, 4-hydroxy-4-{1-hydroxy-2-[4-(5-morpholin-4-yl-1H-indol-3-yl)-piperidin-1-yl]-ethyl}-piperidine-1-carboxylic acid (3-fluoro-5-trifluoromethyl-phenyl)-amide]"
10,3 µM,"O=C(Nc1cc(F)cc(F)c1)N1CCC(O)(C(O)CN2CCC(c3ccc(F)cc3)CC2)CC1 (stereo not shown) [Compound 133, 4-{2-[4-(4-fluoro-phenyl)-piperidin-1-yl]-1-hydroxy-ethyl}-4-hydroxy-piperidine-1-carboxylic acid (3,5-difluoro-phenyl)-amide]"
11,3.4 µM,"OC(CN1CCC(c2ccc(C(F)(F)F)cc2)CC1)C1(O)CCN(C(=S)Nc2ccc(Cl)c(Cl)c2)CC1 (stereo not shown) [Compound 144, 4-hydroxy-4-{1-hydroxy-2-[4-(4-trifluoromethyl-phenyl)-piperidin-1-yl]-ethyl}-piperidine-1-carbothioic acid (3,4-dichloro-phenyl)-amide]"
12,6.1 µM,"OCC(CC1CCN(C(=S)Nc2cccc(Br)c2)CC1)N1CCC(c2c[nH]c3ccccc23)CC1 (stereo not shown) [Compound 59, 4-{3-hydroxy-2-[4-(1H-indol-3-yl)-piperidin-1-yl]-propyl}-piperidine-1-carbothioic acid (3-bromo-phenyl)-amide]"
13,3 µM,"Nc1ccc2[nH]cc(C3CCN(CC(O)C4CCN(C(=O)OCc5ccccc5)CC4)CC3)c2c1 (stereo not shown) [Compound 147, 4-{2-[4-(5-amino-1H-indol-3-yl)-piperidin-1-yl]-1-hydroxy-ethyl}-piperidine-1-carboxylic acid benzyl ester]"
14,0.95 µM,"O=C(OCc1ccccc1)N1CCC(O)(C(O)CN2CCC(c3c[nH]c4ccccc34)CC2)CC1 (stereo not shown) [Compound 69, 4-hydroxy-4-{1-hydroxy-2-[4-(1H-indol-3-yl)-piperidin-1-yl]-ethyl}-piperidine-1-carboxylic acid benzyl ester]"
15,6.4 µM,"O=C(c1cc(F)c(F)c(F)c1)N1CCC(C(O)CN2CCC(c3c[nH]c4ccccc34)CC2)CC1 (stereo not shown) [Compound 8, (4-{1-hydroxy-2-[4-(1H-indol-3-yl)-piperidin-1-yl]-ethyl}-piperidin-1-yl)-(3,4,5-trifluoro-phenyl)-methanone]"
16,1.1 µM,O=C(/C=C/c1cc(F)c(F)c(F)c1)N1CCC(O)(C(O)CN2CCC(c3c[nH]c4ccc(N5CCOCC5)cc34)CC2)CC1 (stereo not shown) [Compound 148]
17,2.7 µM,"COc1ccc(C2CCN(CC(NC(=O)N(C)C)C3CCN(C(=O)C=Cc4cc(F)c(F)c(F)c4)CC3)CC2)cc1 (stereo not shown) [Compound 68, 3-(2-[4-(4-methoxy-phenyl)-piperidin-1-yl]-1-{1-[3-(3,4,5-trifluoro-phenyl)-acryloyl]-piperidin-4-yl}-ethyl)-1,1-dimethyl-urea]"
18,1.8 µM,O=C(/C=C/c1cc(F)cc(F)c1)N1CCC(O)(C(O)CN2CCC(O)(c3ccc(F)cc3)CC2)CC1 (stereo not shown) [Compound 154]
19,5.7 µM,O=C(/C=C/c1ccc(Cl)c(Cl)c1)N1CCC(CC(CO)N2CCC(c3c[nH]c4ccccc34)CC2)CC1 (stereo not shown) [Compound 56]

# Same assay, conditions: test concentration of 25 μM; given where an IC50 value was not obtained; read-out: Inhibition of MCP-1 Binding, percent inhibition
row,inhibition at 25 µM,Compound
1,40%,"CCOC(=O)C(CC1CCN(C(=O)C=Cc2ccc(Cl)c(Cl)c2)CC1)N1CCC(c2c[nH]c3ccccc23)CC1 (stereo not shown) [Compound 49, 3-{1-[3-(3,4-dichloro-phenyl)-acryloyl]-piperidin-4-yl}-2-[4-(1H-indol-3-yl)-piperidin-1-yl]-propionic acid ethyl ester]"
2,42%,"O=C(Cc1cccc([N+](=O)[O-])c1)N1CCC(O)(C(O)CN2CCC(c3c[nH]c4ccc(N5CCOCC5)cc34)CC2)CC1 (stereo not shown) [Compound 176, 1-(4-hydroxy-4-{1-hydroxy-2-[4-(5-morpholin-4-yl-1H-indol-3-yl)-piperidin-1-yl]-ethyl}-piperidin-1-yl)-2-(3-nitro-phenyl)-ethanone]"
3,55%,"O=C(O)C(CC1CCN(C(=O)Nc2ccc(Cl)c(Cl)c2)CC1)N1CCC(c2c[nH]c3ccccc23)CC1 (stereo not shown) [Compound 62, 3-[1-(3,4-dichloro-phenylcarbamoyl)-piperidin-4-yl]-2-[4-(1H-indol-3-yl)-piperidin-1-yl]-propionic acid]"
4,53%,"CCOC(=O)C(CC1CCN(C(=O)Nc2ccc(Cl)c(Cl)c2)CC1)N1CCC(c2c[nH]c3ccccc23)CC1 (stereo not shown) [Compound 52, 3-[1-(3,4-dichloro-phenylcarbamoyl)-piperidin-4-yl]-2-[4-(1H-indol-3-yl)-piperidin-1-yl]-propionic acid ethyl ester]"
5,55%,"O=C(OCc1ccccc1)N1CCC(O)(C(O)CN2CCC(c3ccc(C(F)(F)F)cc3)CC2)CC1 (stereo not shown) [Compound 126, 4-hydroxy-4-{1-hydroxy-2-[4-(4-trifluoromethyl-phenyl)-piperidin-1-yl]-ethyl}-piperidine-1-carboxylic acid benzyl ester]"
6,43%,"COc1ccc(C2CCN(CC(O)C3(O)CCN(C(=S)Nc4cc(OC)cc(OC)c4)CC3)CC2)cc1 (stereo not shown) [Compound 119, 4-hydroxy-4-{1-hydroxy-2-[4-(4-methoxy-phenyl)-piperidin-1-yl]-ethyl}-piperidine-1-carbothioic acid (3,5-dimethoxy-phenyl)-amide]"
